The conditions of data set [1]: 101.3 kPa, Liquid; for viscosity: Capillary tube (Ostwald / Ubbelohde) method.
Data set [2] in a line: xn = mol fraction of the nth substance listed. The following applies: 101.3 kPa, Liquid, x2 = 0; for viscosity: Capillary tube (Ostwald / Ubbelohde) method.

± gives the expanded uncertainty stated by the source.

Usually mass density stands for the mass of a sample divided by its volume. By speed of sound is commonly meant how fast a sound wave travels through the sample. As usually defined, the viscosity is the internal friction of a fluid under shear. In the case of `CCC(=O)CC` [pentan-3-one], in data set [1] (293.15 K), the mass density is on record as 814.4 ± 1.1 kg/m3, the speed of sound came to 1230.7 ± 3.3 m/s and the viscosity came out at 0.4714 ± 0.0064 mPa·s. In data set [1] (303.15 K), the mass density worked out at 804.7 ± 1.1 kg/m3, the speed of sound was 1197.8 ± 3.3 m/s and the viscosity came out at 0.4231 ± 0.0059 mPa·s. In addition, in data set [1] (313.15 K), the mass density amounted to 794.9 ± 1.2 kg/m3, the speed of sound was determined as 1159.1 ± 3.3 m/s and the viscosity amounted to 0.3799 ± 0.0055 mPa·s.
As to `CCc1ccccc1` [ethylbenzene] + CCC(=O)CC, the figures for the viscosity in data set [2] (293.15 K), in data set [2] (303.15 K) and in data set [2] (313.15 K) were 0.6793 ± 0.0085 mPa·s, 0.6006 ± 0.0077 mPa·s and 0.5355 ± 0.007 mPa·s, respectively. In addition, the figures for the mass density in data set [2] (293.15 K), in data set [2] (303.15 K) and in data set [2] (313.15 K) were 867.4 ± 1.2 kg/m3, 856.5 ± 1.2 kg/m3 and 848.9 ± 1.3 kg/m3, respectively. The speed of sound in data set [2] (293.15 K) is 1333.4 ± 3.5 m/s; in data set [2] (303.15 K) it was 1295.7 ± 3.4 m/s; in data set [2] (313.15 K) it was 1259.8 ± 3.4 m/s.
In the case of `CCc1ccccc1` [ethylbenzene], in data set [1] (293.15 K), the mass density is given as 867.4 ± 1.2 kg/m3, the speed of sound is on record as 1333.4 ± 3.5 m/s and the viscosity was determined as 0.6793 ± 0.0085 mPa·s. For the same compound, in data set [1] (303.15 K), the mass density was 856.5 ± 1.2 kg/m3, the speed of sound is 1295.7 ± 3.4 m/s and the viscosity came to 0.6006 ± 0.0077 mPa·s. Further, in data set [1] (313.15 K), the mass density came out at 848.9 ± 1.3 kg/m3, the speed of sound came to 1259.8 ± 3.4 m/s and the viscosity came out at 0.5355 ± 0.007 mPa·s.
As for `Cc1ccccc1C` [1,2-dimethylbenzene], in data set [1] (293.15 K), the mass density turned out to be 880.2 ± 1.2 kg/m3, the speed of sound is listed as 1365.6 ± 3.5 m/s and the viscosity came to 0.8092 ± 0.0098 mPa·s. In addition, in data set [1] (303.15 K), the mass density was 871.8 ± 1.2 kg/m3, the speed of sound is reported as 1339 ± 3.5 m/s and the viscosity was determined as 0.7172 ± 0.0089 mPa·s. Besides, in data set [1] (313.15 K), the mass density is reported as 863.2 ± 1.3 kg/m3, the speed of sound came to 1297.5 ± 3.4 m/s and the viscosity is listed as 0.6292 ± 0.0079 mPa·s.
Turning to `Cc1ccccc1C` [1,2-dimethylbenzene] + CCC(=O)CC, in data set [2] (293.15 K), the viscosity was 0.8092 ± 0.0098 mPa·s, the mass density is 880.2 ± 1.2 kg/m3 and the speed of sound came out at 1365.6 ± 3.5 m/s. Further, in data set [2] (303.15 K), the viscosity was 0.7172 ± 0.0089 mPa·s, the mass density was 871.8 ± 1.2 kg/m3 and the speed of sound was 1339 ± 3.5 m/s. In data set [2] (313.15 K), the viscosity stood at 0.6292 ± 0.0079 mPa·s, the mass density was determined as 863.2 ± 1.3 kg/m3 and the speed of sound is reported as 1297.5 ± 3.4 m/s.

The values are drawn from the NIST ThermoML archive (doi:10.1021/je030151s).
